Results published in patent US6413953B1, “Pt(IV) antitumor agent” (AnorMED Inc., priority 1999, dated 2002).
Read-outs that look alike come from different tables or passages of the source.

Experiments:
[1] = system: CH1 tumor containing xenografts; assay: In vivo growth delay in CH1 tumor xenografts; details: administered at maximum tolerated dose
Description: This is in contrast to the growth delay of 0.6 days, achieved with compound E (FIG. 1).

A2780 = assay: Cell proliferation IC50, human cancer cell lines in culture; format: cell-based; details: A2780 cell line; for IC50: read-out: IC50 (50% decrease in cell proliferation); for (IC50-Pt(IV)/IC50-Pt(II)): vs cis-amminedichloro(2-methylpyridine)platinum(II)
Description: (§1) Compounds were tested against human cancer cell lines grown in cell culture according to established procedures (described by Holford, et al., British J. Cancer 1998 77(3) 366-373).

CH1R = assay: as above; format: cell-based; details: for resistance factor: CH1R vs CH1, in brackets; for IC50: read-out: IC50 (50% decrease in cell proliferation), CH1R cisplatin-resistant cell line; for (IC50-Pt(IV)/IC50-Pt(II)): CH1R cell line, vs cis-amminedichloro(2-methylpyridine)platinum(II)
Description: as §1

CH1 = assay: as above; format: cell-based; details: CH1 cell line; for IC50: read-out: IC50 (50% decrease in cell proliferation); for (IC50-Pt(IV)/IC50-Pt(II)): vs cis-amminedichloro(2-methylpyridine)platinum(II)
Description: as §1

41M = assay: as above; format: cell-based; details: 41M cell line; for IC50: read-out: IC50 (50% decrease in cell proliferation); for (IC50-Pt(IV)/IC50-Pt(II)): vs cis-amminedichloro(2-methylpyridine)platinum(II)
Description: as §1

41MR = assay: as above; format: cell-based; details: for resistance factor: 41MR vs 41M, in brackets; for IC50: read-out: IC50 (50% decrease in cell proliferation), 41MR cisplatin-resistant cell line; for (IC50-Pt(IV)/IC50-Pt(II)): 41MR cell line, vs cis-amminedichloro(2-methylpyridine)platinum(II)
Description: as §1

2780R = assay: as above; format: cell-based; details: for resistance factor: 2780R vs A2780, in brackets; for IC50: read-out: IC50 (50% decrease in cell proliferation), 2780R cisplatin-resistant cell line; for (IC50-Pt(IV)/IC50-Pt(II)): A2780R cell line, vs cis-amminedichloro(2-methylpyridine)platinum(II)
Description: as §1

[2] = Aqueous solubility at ambient conditions; format: physicochemical; details: for Aqueous Solubility / Ratio to Solubility of bis-butyrato-ammine-(cyclohexylamine)dichloro platinum (IV) / Ratio to Solubility of cis-ammine(2-methylpyridine)Dichloroplatinum (II) / Ratio to Solubility of cisplatin: ambient conditions
[3] = background statement; cited from earlier work
[4] = solubility ratio to cis-amminedichloro(2-methylpyridine)platinum(II)

Compound | growth delay [1] [days] | IC50 (A2780) [µM] | resistance factor (CH1R) | IC50 (CH1R) [µM] | IC50 (CH1) [µM] | IC50 (41M) [µM] | resistance factor (41MR) | IC50 (41MR) [µM] | resistance factor (2780R) | IC50 (2780R) [µM] | Aqueous Solubility [2] | Ratio to Solubility of bis-butyrato-ammine-(cyclohexylamine)dichloro platinum (IV) [2] | Ratio to Solubility of cis-ammine(2-methylpyridine)Dichloroplatinum (II) [2] | Ratio to Solubility of cisplatin [2] | (IC50-Pt(IV)/IC50-Pt(II)) (A2780) | (IC50-Pt(IV)/IC50-Pt(II)) (CH1R) | (IC50-Pt(IV)/IC50-Pt(II)) (CH1) | (IC50-Pt(IV)/IC50-Pt(II)) (41M) | (IC50-Pt(IV)/IC50-Pt(II)) (41MR) | (IC50-Pt(IV)/IC50-Pt(II)) (2780R) | further results
N.N.[Cl][Pt][Cl] [cisplatin, [PtCl2(NH3)2], reference compound] | 34 | 0.33 | (6.5) | 0.71 | 0.11 | 0.26 | (4.6) | 1.2 | (15.7) | 5.2 | – | – | – | – | – | – | – | – | – | – | –
[NH2][Pt]1([NH2])[O]C(=O)C2(CCC2)C(=O)[O]1 [carboplatin, diammine[1,1-cyclobutanedicarboxylato (2-)]-O,O′-platinum(II), reference compound] | – | 1.8 | (4.5) | 6 | 1.3 | 3.3 | (2.7) | 8.8 | (14.4) | 25.9 | 14 mg/mL | 70 | 20 | 14 | – | – | – | – | – | – | Aqueous Solubility [3]: 14 mg/mL
CC(=O)[O][Pt]([NH2])([Cl])([Cl])([NH]C1CCCCC1)[O]C(C)=O [Compound F, bis-acetatoammine(cyclohexylamine)dichloroplatinum(IV), reference compound] | – | 0.4 | (4) | 0.4 | – | 0.5 | (1.2) | 0.6 | (4.6) | 1.84 | <1 mg/mL | <5 | <1.4 | <1 | – | – | – | – | – | – | –
CC(=O)[O][Pt]([Cl])([O]C(C)=O)[O]C(C)=O.Cc1ccccn1.N [Compound D] | – | 47 | (1.9) | 88 | 46 | > 100 | – | > 100 | – | > 100 | 80 mg/mL | – | – | – | – | – | – | – | – | – | –
Cc1cccc[n+]1[Pt-2]([NH3+])([OH])([OH])([Cl])[Cl] [Compound B] | – | 4.5 | (2.2) | 7.4 | 3.4 | 10 | (1.9) | 19 | (8) | 36 | ˜5 mg/ml | 25 | 7.1 | 5 | 1.8 | 3.5 | 1.5 | 1.8 | 3.2 | 3.0 | (SolPt(IV)/SolPt(II)) [2, 4]: 7.1
CCCC(=O)[O][Pt]([NH2])([Cl])([Cl])([NH]C1CCCCC1)[O]C(=O)CCC [Compound G, bis-butyratoammine(cyclohexylamine)dichloroplatinum(IV), reference compound] | – | – | (3.7) | 0.024 | 0.0066 | 0.072 | (0.67) | 0.048 | – | – | – | – | – | – | – | – | – | – | – | – | –
CC(=O)[O][Pt]([OH])([Cl])[O]C(C)=O.Cc1ccccn1.N [Compound E] | 0.6 | 10.5 | (2.6) | 46 | 18 | 78 | (1) | 78 | (5.9) | 62 | 15 mg/mL | 75 | 21.4 | 15 | 4.2 | 21.9 | 8.2 | 13.9 | 13 | 5.2 | (SolPt(IV)/SolPt(II)) [2]: 21.4
ammine(chloro)trihydroxo(2-methylpyridine)platinum(IV) [Compound A] | 32.8 | 9.5 | (2) | 12 | 6 | 25 | (1.8) | 45 | (4.3) | 41 | – | – | – | – | 3.8 | 5.7 | 2.7 | 4.5 | 7.5 | 3.4 | –
Cc1ccccn1.N.[Cl-].[Cl-].[Pt+2] [cis-ammine(2-methylpyridine)dichloroplatinum(II), reference compound] | – | 2.5 | (1) | 2.1 | 2.2 | 5.6 | (1.1) | 6 | (4.8) | 12 | 0.7 mg/mL | 3.5 | 1 | 0.7 | – | – | – | – | – | – | –
CC(=O)[O][Pt]([OH])([Cl])[O]C(C)=O.Cc1ccccn1.N [Compound C] | – | 8.6 | (1.8) | 17 | 8.6 | 27 | (0.96) | 26 | (5.2) | 45 | 20 mg/mL | 100 | 28.6 | 20 | 3.4 | 8.1 | 3.9 | 4.8 | 4.3 | 3.8 | (SolPt(IV)/SolPt(II)) [2, 4]: 28.6
